Like-named read-outs stand apart in the source and are kept apart here.
Tests used:
HepG2 cells [1] = assay: HepG2 cytotoxicity assay; conditions: HepG2 cytotoxicity unified across the three screens
How it was run: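 Here viability after a 48 h compound incubation (37°C, humidified 5% CO2) is measured by fluorescence and expressed as percent inhibition, with doxorubicin at 50 μM and DMSO as the bounding controls.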

[2] = tested on: P. falciparum late stage (stages IV-V) gametocytes; assay: P. falciparum late stage gametocyte ATP depletion assay (Pf GC-ATP); conditions: 1: YES; 0: NO
HepG2 cells [3] = conditions: cited from earlier work
[4] = tested on: P. falciparum late stage (stages IV-V) gametocytes; design: method as in Almela et al 2016; conditions: TCAMS screen comparison; ref Almela et al 2016; read-out: Pf GCT ATP IC50; cited from earlier work
[5] = tested on: P. falciparum female gametocytes; assay: P. falciparum female gametogenesis assay (Pf FGAA); conditions: 1: YES; 0: NO
[6] = tested on: P. falciparum female gametocytes; design: method as in Miguel-Blanco et al 2017; conditions: TCAMS screen comparison; ref Miguel-Blanco et al 2017; read-out: Pf FGAA IC50; cited from earlier work
[7] = value reported with the Pf FGAA screen, ref Miguel-Blanco et al 2017
[8] = value reported with the Pf GCT ATP screen, ref Almela et al 2016

Compound | Unified cytotox (HepG2 cells [1]) [µM] | Is compound selective in assay? Pf GC-ATP active? [2] | HepG2 cytoxicity (HepG2 cells [3]; [7]) [µM] | HepG2 cytoxicity (HepG2 cells [3]; [8]) [µM] | IC50 [4] [nM] | Is compound selective in assay? Pf FGAA active? [5] | IC50 [6] [nM]
CCc1c(CCNCCCCCCNC(C)Cc2ccc3c(c2CC)OCO3)ccc(OC)c1OC.Cl (stereo not shown) [TCMDC-132052] | 2.78 | 0 (0: NO) | 2.46 | 3.1 | 330 | 0 (0: NO) | 480
CCc1c(CCNCCCCCCNC(C)(C)Cc2ccc3c(c2CC)OCO3)ccc(OC)c1OC.Cl [TCMDC-132055] | 4.32 | 1 (1: YES) | 4.27 | 4.37 | 270 | 0 (0: NO) | 1220
Nc1c(Cl)cc(C(O)CNCCCCCOCCCc2ccc(O)c3ncccc23)cc1Cl.O=C(O)/C=C/C(=O)O (stereo not shown) [TCMDC-132088] | 6.14 | 1 (1: YES) | 7.76 | 4.51 | 450 | 0 (0: NO) | 2100
O=C(O)C(F)(F)F.O=S(=O)(NCCN1CCCC1)c1cccc(-c2ccc(CNC3Cc4ccccc4C3)cc2)c1 [TCMDC-132241] | 7.23 | 0 (0: NO) | 6.46 | 8 | 2150 | 0 (0: NO) | 3100
COc1ccc(CNC2Cc3ccccc3C2)cc1-c1ccc(S(=O)(=O)NCCN2CCCC2)cc1.O=C(O)C(F)(F)F [TCMDC-132248] | 7.08 | 0 (0: NO) | 5.89 | 8.28 | 1380 | 0 (0: NO) | 1990
COc1ccc(CNC2Cc3ccccc3C2)cc1-c1ccc(OC)c(S(=O)(=O)NCCN2CCCC2)c1.O=C(O)C(F)(F)F [TCMDC-132251] | 11.89 | 1 (1: YES) | 7.17 | 16.6 | 1140 | 0 (0: NO) | 2700
Cc1cccc2nc(-c3ccc(-c4ccc(CNCc5ccc(CN)cc5)cc4)s3)[nH]c12.O=C(O)C(F)(F)F [TCMDC-132809] | 19.40 | 1 (1: YES) | 14.79 | 24 | 860 | 1 (1: YES) | 470
NCc1ccc(CNCc2cccc(-c3ccc(-c4nc5cc(C(F)(F)F)ccc5[nH]4)cc3)c2)cc1.O=C(O)C(F)(F)F [TCMDC-132811] | 19.47 | 1 (1: YES) | 14.65 | 24.3 | 860 | 1 (1: YES) | 830
FC(F)(F)c1ccc2[nH]c(-c3ccc(-c4ccc(CNCCN5CCNCC5)cc4)s3)nc2c1.O=C(O)C(F)(F)F [TCMDC-132862] | 9.89 | 0 (0: NO) | 12.88 | 6.9 | 1290 | 0 (0: NO) | 3000
FC(F)(F)c1ccc2[nH]c(-c3ccc(-c4cccc(CNCCN5CCNCC5)c4)cc3)nc2c1.O=C(O)C(F)(F)F [TCMDC-132864] | 14.90 | 1 (1: YES) | 12.31 | 17.5 | 1080 | 0 (0: NO) | 1710
FC(F)(F)c1ccc2[nH]c(-c3cccc(-c4ccc(CNCCN5CCNCC5)cc4)c3)nc2c1.O=C(O)C(F)(F)F [TCMDC-132872] | 10.72 | 1 (1: YES) | 8.81 | 12.62 | 860 | 0 (0: NO) | 1790
Fc1ccc2[nH]c(-c3ccc(-c4ccc(CN5CCC(CCN6CCCCC6)CC5)cc4)cc3)nc2c1.O=C(O)C(F)(F)F [TCMDC-133924] | 4.62 | 1 (1: YES) | 3.94 | 5.3 | 460 | 0 (0: NO) | 1700
Fc1ccc2[nH]c(-c3cccc(-c4ccc(CN5CCC(CCN6CCCCC6)CC5)cc4)c3)nc2c1.O=C(O)C(F)(F)F [TCMDC-133940] | 4.99 | 1 (1: YES) | 4.79 | 5.2 | 430 | 0 (0: NO) | 1880
FC(F)(F)c1ccc2[nH]c(-c3ccc(-c4cccc(CN5CCC(CCN6CCCCC6)CC5)c4)cc3)nc2c1.O=C(O)C(F)(F)F [TCMDC-133941] | 3.93 | 0 (0: NO) | 4.45 | 3.4 | 510 | 0 (0: NO) | 1260
Cc1n[nH]c2ccc(-c3ccc4nccc(N5CCC(N)CC5)c4c3)cc12.Cl [TCMDC-134315] | 9.27 | 1 (1: YES) | 6.88 | 11.66 | 380 | 0 (0: NO) | 2450
CC(C)c1ccc(CN2CCC(CNC(=O)c3cc(-c4cccc(F)c4)cs3)C2)cc1.O=C(O)C(F)(F)F (stereo not shown) [TCMDC-134437] | 5.77 | 1 (1: YES) | 6.24 | 5.3 | 450 | 0 (0: NO) | 1370
CC(C)(C)c1ccc(CN2CCC(CNC(=O)c3cc(-c4ccccc4C(F)(F)F)cs3)C2)cc1.O=C(O)C(F)(F)F (stereo not shown) [TCMDC-134441] | 8.09 | 1 (1: YES) | 9.77 | 6.4 | 310 | 1 (1: YES) | 690
CC(C)(C)c1ccc(CN2CCC(CNC(=O)c3cc(-c4cccc(C(F)(F)F)c4)cs3)C2)cc1.O=C(O)C(F)(F)F (stereo not shown) [TCMDC-134442] | 5.65 | 1 (1: YES) | 6.39 | 4.9 | 420 | 0 (0: NO) | 950
CC(C)(C)c1ccc(CN2CCC(CNC(=O)c3cc(-c4ccccc4F)cs3)C2)cc1.O=C(O)C(F)(F)F (stereo not shown) [TCMDC-134443] | 8.35 | 1 (1: YES) | 9.30 | 7.4 | 340 | 1 (1: YES) | 830
